Results from paper PMC8446442, “Crystal Structure of Mycobacterium tuberculosis Elongation Factor G1” (Frontiers in Molecular Biosciences, 2021).

Legend:
[1] = biological target: T1, Mtb EF-G1 (Elongation factor G1) (Mycobacterium tuberculosis, UniProt P9WNM7); assay: SPR (Biacore T200), […] steady-state affinity fit; format: binding; parameters: gene fusA; recombinant Mtb EF-G1 with a C-terminal His tag, immobilized on CM5 chip
[2] = biological target: T1, Mtb EF-G1 (Elongation factor G1); assay: ITC at […] °C; crystal structure of the complex ([…] Å, SeMet SAD); format: binding; parameters: gene fusA; recombinant Mtb EF-G1 with a C-terminal His tag

T1 sequence (P9WNM7 whole entry): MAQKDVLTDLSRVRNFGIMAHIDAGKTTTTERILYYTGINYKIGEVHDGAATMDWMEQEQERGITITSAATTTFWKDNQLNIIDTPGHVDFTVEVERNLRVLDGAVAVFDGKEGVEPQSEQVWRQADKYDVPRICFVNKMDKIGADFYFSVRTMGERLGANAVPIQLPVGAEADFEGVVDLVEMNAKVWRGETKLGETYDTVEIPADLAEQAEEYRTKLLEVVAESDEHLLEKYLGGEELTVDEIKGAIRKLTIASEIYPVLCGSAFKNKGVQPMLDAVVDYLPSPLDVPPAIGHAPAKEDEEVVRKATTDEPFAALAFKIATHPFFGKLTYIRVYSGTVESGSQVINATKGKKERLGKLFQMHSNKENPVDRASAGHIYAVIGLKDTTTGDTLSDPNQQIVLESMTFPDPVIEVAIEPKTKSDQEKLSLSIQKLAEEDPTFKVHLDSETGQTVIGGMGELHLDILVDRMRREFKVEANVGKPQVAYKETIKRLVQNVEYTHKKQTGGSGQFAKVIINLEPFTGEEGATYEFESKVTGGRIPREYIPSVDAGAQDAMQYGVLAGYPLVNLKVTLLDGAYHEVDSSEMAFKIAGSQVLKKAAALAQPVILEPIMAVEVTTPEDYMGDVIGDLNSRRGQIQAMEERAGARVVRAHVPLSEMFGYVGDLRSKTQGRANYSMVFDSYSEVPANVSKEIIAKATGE

## CC(=O)O[C@H]1C[C@@]2(C)[C@@H](C[C@@H](O)[C@H]3[C@@]4(C)CC[C@@H](O)[C@@H](C)[C@@H]4CC[C@@]32C)/C1=C(\CCC=C(C)C)C(=O)O [FA, Fusidic acid]
[1]
  Kd: 3.54 µM

## Nc1nc2c(ncn2[C@@H]2O[C@H](COP(=O)(O)OP(=O)(O)O)[C@@H](O)[C@H]2O)c(=O)[nH]1 [GDP]
[2]
  Kd: 11.5 ± 0.3 µM
